According to patent US7833722B2, “Ligands for G protein-coupled receptor protein and use thereof” (Takeda Pharmaceutical Company Limited, priority 2004, dated 2010):

Assays:
GPR17 [1] = target: T1, GPR17 (Homo sapiens, UniProt Q13304); test: Suppression of forskolin-increased intracellular cAMP level in GPR17-expressed CHO cells; assay type: cell-based; parameters: expressed in transfected cells; conditions: forskolin 2 μM, 30 minutes, ALA in various concentrations, FIG. 2
[2] = test system: SP-induced biting response (pain response); test: Substance P-induced biting response after intrathecal administration to mice; assay type: in vivo; conditions: 0.66, 2.0 and 6.6 μg/mouse intrathecal with SP 10 μg, male ICR mice, counted for one minute, FIG. 3
GPR17 [3] = target: T1, GPR17; test: SRE-luciferase reporter assay in GPR17-expressed HeLa cells
GPR40 = target: T2, GPR40 (Homo sapiens, UniProt O14842); test: SRE-luciferase reporter assay in GPR40 expression cells used for control; assay type: cell-based; conditions: PBG 1000 μM
T2 construct: expressed in transfected cells; host or cells: GPR40 expression cells
T2 sequence (O14842 whole entry, species assumed): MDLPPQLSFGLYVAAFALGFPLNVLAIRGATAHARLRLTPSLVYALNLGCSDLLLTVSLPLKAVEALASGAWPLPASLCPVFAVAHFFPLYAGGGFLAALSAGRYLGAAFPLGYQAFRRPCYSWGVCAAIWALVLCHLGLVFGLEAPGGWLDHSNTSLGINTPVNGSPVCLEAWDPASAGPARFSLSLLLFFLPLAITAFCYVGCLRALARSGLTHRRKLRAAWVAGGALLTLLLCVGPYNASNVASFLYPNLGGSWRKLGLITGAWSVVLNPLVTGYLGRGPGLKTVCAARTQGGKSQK

T1 sequence (Q13304 29-367): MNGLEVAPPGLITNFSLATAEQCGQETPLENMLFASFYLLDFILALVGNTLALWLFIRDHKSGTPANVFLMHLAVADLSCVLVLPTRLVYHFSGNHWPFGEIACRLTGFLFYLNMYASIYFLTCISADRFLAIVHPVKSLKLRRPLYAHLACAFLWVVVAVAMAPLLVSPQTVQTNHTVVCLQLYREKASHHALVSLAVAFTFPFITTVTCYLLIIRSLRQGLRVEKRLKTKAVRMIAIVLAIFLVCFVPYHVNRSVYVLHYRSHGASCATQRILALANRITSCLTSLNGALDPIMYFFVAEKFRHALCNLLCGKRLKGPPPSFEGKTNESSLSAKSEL

| luciferase activity (cps), GPR40 (control) (GPR40) | Increased luciferase activity (cps) in the GPR17 expression cells by PBG (GPR17 [3]; PBG 1000 μM) | luciferase activity in the GPR17 expression cells (in words) (GPR17 [3]; PBG 1000 μM) | Structure (SMILES) | intracellular cAMP level increased by forskolin addition (GPR17 [1]) | effect on SP-induced biting response (pain response) [2] | luciferase activity in the GPR17-expressed cells (in words) (GPR17 [3]; ALA 200 μM) | Increased Luciferase Activity (cps) by ALA in GPR17-Expressed Cells (GPR17 [3]; ALA 200 μM, HeLa cells, 4 hours incubation) |
| --- | --- | --- | --- | --- | --- | --- | --- |
| – | – | – | NCC(=O)CCC(=O)O [ALA, 5-aminolevulinic acid] | dose-dependent and specific decrease | significant suppression effect | increased luciferase activity | 6707 cps |
| 3769 cps | 37999 cps | increased luciferase activity | NCc1[nH]cc(CCC(=O)O)c1CC(=O)O [PBG, porphobilinogen] | – | – | – | – |
